Reference: PMC9865629, “Rhanteriol, a New Rhanterium suaveolens Desf. Lignan with Pharmacological Potential as an Inhibitor of Enzymes Involved in Neurodegeneration and Type 2 Diabetes” (Plants, 2023)

Key:
α-glucosidase = α-glucosidase inhibition assay; assay type: biochemical; details: pure compound and standard
Protocol: Results are expressed as IC50 values (mg/mL for extracts and µM for pure compound), using GraphPad Prism 8 Software (San Diego, CA, USA). The assay was carried out in triplicate.

[1] = target: acetylcholinesterase (AChE) (Homo sapiens, UniProt P22303); test: biochemical; details: read-out: % of inhibition against AChE
acetylcholinesterase (AChE), sequence (P22303 32-614, species assumed): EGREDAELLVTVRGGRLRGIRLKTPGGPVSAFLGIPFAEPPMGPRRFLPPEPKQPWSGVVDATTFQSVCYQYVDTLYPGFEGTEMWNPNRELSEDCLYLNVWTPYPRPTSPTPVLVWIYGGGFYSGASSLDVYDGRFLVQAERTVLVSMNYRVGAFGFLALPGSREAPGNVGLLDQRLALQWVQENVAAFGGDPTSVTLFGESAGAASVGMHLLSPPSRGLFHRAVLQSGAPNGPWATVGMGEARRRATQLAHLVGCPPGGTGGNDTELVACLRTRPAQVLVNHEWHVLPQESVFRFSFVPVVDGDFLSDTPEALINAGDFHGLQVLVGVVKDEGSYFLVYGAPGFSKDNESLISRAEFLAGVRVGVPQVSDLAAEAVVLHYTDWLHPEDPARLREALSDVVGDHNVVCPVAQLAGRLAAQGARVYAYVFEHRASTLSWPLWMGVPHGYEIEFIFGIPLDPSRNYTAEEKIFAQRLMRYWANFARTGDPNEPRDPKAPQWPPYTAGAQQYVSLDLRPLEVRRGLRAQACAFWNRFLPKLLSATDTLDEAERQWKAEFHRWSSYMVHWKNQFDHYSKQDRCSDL
Protocol: (§1) The inhibition of AChE and BuChE was evaluated using Ellman’s method, as previously reported. Briefly, extracts and pure compound were incubated with AChE or BuChE (25 µL, 0.05 U/mL), DTNB (125 µL, 3 mM) and buffer B (25 µL, 50 mM Tris–HCl, pH 8 containing 0.1% BSA) for 10 min at 37 °C. Then, the substrate of the reaction, the acetylthiocholine iodide or butyrylthiocholine chloride (25 µL, 5 mM), was added, and the absorbance was measured at 405 nm, after 10 min. Galanthamine was used as the standard in both assays. Results are expressed as IC50 values (mg/mL for extracts and µM for pure compound), using GraphPad Prism 8 Software (San Diego, CA, USA). The test was carried out in triplicate.

[2] = target: butyrylcholinesterase (BuChE) (Homo sapiens, UniProt P06276); test: biochemical
butyrylcholinesterase (BuChE), sequence (P06276 29-602): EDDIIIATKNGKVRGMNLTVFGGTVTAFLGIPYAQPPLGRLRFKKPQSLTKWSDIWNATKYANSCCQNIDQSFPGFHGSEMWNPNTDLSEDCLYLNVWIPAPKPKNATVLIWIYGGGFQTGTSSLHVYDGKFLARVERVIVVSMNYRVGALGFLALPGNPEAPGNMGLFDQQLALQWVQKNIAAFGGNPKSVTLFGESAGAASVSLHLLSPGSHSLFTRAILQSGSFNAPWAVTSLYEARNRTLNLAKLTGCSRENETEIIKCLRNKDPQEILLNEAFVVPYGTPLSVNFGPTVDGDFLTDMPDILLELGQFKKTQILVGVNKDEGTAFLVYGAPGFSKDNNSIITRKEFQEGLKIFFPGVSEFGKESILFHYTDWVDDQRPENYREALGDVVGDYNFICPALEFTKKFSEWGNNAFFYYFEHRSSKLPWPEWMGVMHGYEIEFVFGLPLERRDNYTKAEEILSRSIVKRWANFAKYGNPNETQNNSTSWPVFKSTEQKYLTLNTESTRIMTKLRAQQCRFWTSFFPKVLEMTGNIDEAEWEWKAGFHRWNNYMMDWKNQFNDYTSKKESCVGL
Protocol: as §1

[3] = system: HeLa (cervical carcinoma) cells; test: Cell viability MTT assay, HeLa; assay type: cell-based; details: 100, 50, 25 µM for 48 h, data not shown
Protocol: (§2) HeLa (cervical carcinoma), Jurkat (T-cell leukemia), and U937 (monocytic leukemia) cell lines were obtained from the American Type Cell Culture (ATCC) (Rockville, MD, USA). Cells were maintained in DMEM (HeLa) or RPMI 1640 (Jurkat and U937), supplemented with 10% FBS, 100 mg/L streptomycin and penicillin 100 IU/mL at 37 °C in a humidified atmosphere of 5% CO2. To ensure logarithmic growth, cells were subcultured every two days. Stock solutions (50 mM) of purified compound in DMSO were stored in the dark at 4 °C. Appropriate dilutions were prepared in a culture medium immediately prior to use.
(§3) Cell viability was evaluated using a colorimetric assay based on an MTT ([3-(4,5-dimethylthiazol-2-yl)-2,5-diphenyltetrazolium bromide]) assay, in order to compare the effect of potentially cytotoxic substances with a control condition. Briefly, cells were plated in 96-well tissue culture plates (3.5 × 10^3 cells/well) and after 24 h, the medium was replaced with a fresh one alone or one containing serial dilutions of compound 1 (100, 50, 25 µM), and incubation was performed for 48 h. […] The optical density (OD) of each well was measured with a microplate spectrophotometer (Multiskan Spectrum Thermo Electron Corporation reader, Thermo Fisher Scientific, Waltham, Massachusetts, United States) equipped with a 620 nm filter. Cell vitality was calculated as % vitality = 100 × (OD treated/OD DMSO).

[4] = system: U937 (monocytic leukemia) cells; test: Cell viability MTT assay, U937; assay type: cell-based; details: 100, 50, 25 µM for 48 h, data not shown
Protocol: as §2, §3

[5] = system: Jurkat (T-cell leukemia) cells; test: Cell viability MTT assay, Jurkat; assay type: cell-based; details: 100, 50, 25 µM for 48 h, data not shown
Protocol: as §2, with “use. […]” for “use.”
as §3, with “condition.” for “condition. Briefly, cells were plated in 96-well tissue culture plates (3.5 × 10^3 cells/well) and after 24 h, the medium was replaced with a fresh one alone or one containing serial dilutions of compound 1 (100, 50, 25 µM), and incubation was performed for 48 h.”

[6] = system: HaCaT epidermal keratinocytes; test: Cell viability MTT assay, HaCaT; assay type: cell-based; details: 100, 50, 25 µM for 48 h, data not shown
Protocol: Epidermal keratinocytes (HaCaT) were cultured in Dulbecco’s Modified Eagle’s Medium containing 10% fetal bovine serum, supplemented with 100 U/mL each of penicillin and streptomycin, and 2 mM/L glutamine, and grown at 37 °C under 5% CO2 air humidified atmosphere. Human leukemia cell lines (Jurkat) were maintained in RPMI medium supplemented with 10% FBS, 2 mM l-glutamine, 100 U/mL penicillin, and […] at 37 °C, in 5% CO2 [26].
as §3, with “h. Staurosporin 0.2 µM was used as a positive control.” for “h.”

BuChE = details: read-out: IC50 (BuChE, by context); lignans from Citharexylum spinosum L.; cited from earlier work

Row | Molecule | IC50 (α-glucosidase) [µM] | inhibition at 100 µM [1] [%] | IC50 [2] [µM] | cytotoxicity (MTT) [3] | cytotoxicity (MTT) [4] | cytotoxicity (MTT) [5] | cytotoxicity (MTT) [6] | IC50 (BuChE) [µM]
1 | COc1cc(C[C@@H]2CO[C@@H](c3ccc(O)c(OC)c3)[C@@H]2COC(=O)c2ccccc2)ccc1O [Compound 1, 4-benzoic acid 4-(4-hydroxy-3-meethoxybenzyl)-2-(4-hydroxy-3-methoxyphenyl) tetrahydrofuran-3-ylmethyl ester] | 26.8 ± 3.29 | 21 | 10.41 ± 0.03 | not toxic | not toxic | not toxic | not toxic | –
2 | plucheoside D2 | – | – | – | – | – | – | – | 71.3 ± 2.82
3 | plucheoside D1 | – | – | – | – | – | – | – | 98.1 ± 2.72
